From US7691901B2, “Carotenoid analogs or derivatives for the inhibition and amelioration of inflammation” (Cardax Pharmaceuticals Inc., priority 2004, dated 2010)

Tested on: lipid peroxidation products
Assay: Thioglycollate/Zymosan-induced peritonitis model: lipid oxidation products in peritoneal lavage by electrospray ionization tandem mass spectrometry
Format: in vivo, mice
Description: Thioglycollate/Zymosan—Induced Peritonitis Model: Wild-type mice were administered either 500 mg/kg body weight of disodium disuccinate astaxanthin (ddAst/Cardax™) in an oil emulsion vehicle, or normal saline (NS) as a negative control, by oral gavage at 24 hours intervals beginning 7 days prior to the induction of peritonitis. Peritonitis was induced experimentally as follows: mice were injected intraperitoneally with 1 ml of 4% by weight thioglycollate (Tg) broth, to induce the recruitment of proinflammatory cells to the peritoneum. Either 16 hours or 72 hours after recruitment, approximately half of the mice were injected intraperitoneally with 250 mg/kg body weight of zymosan (Z) for a further 4 hours. The mice not receiving zymosan underwent no further treatment. Peritoneal lavage was performed in control animals or animals treated with (ddAst) 16 hours post Tg injection, or 20 h following the combination of both Tg injection (16 hours) followed by Z injection (4 hours), as indicated (Tg/Z). Peritoneal lavages were performed with phosphate-buffered saline containing antioxidant (0.1 mM butylated hydroxytoluene (BHT)) and 2 mM of the metal chelator diethylenetriamine pentaacetic acid (DTPA) according to established practices in the art. The lavage suspensions were transferred to screw-capped tubes under an argon atmosphere, and immediately centrifuged at 1000 rpm in a table top microcentrifuge for 10 min at 4° C. to remove whole cells and debris. All analyses of lipid peroxidation products was performed on cell-free lavage supernatants. Cell pellets were resuspended in phosphate-buffered saline containing 0.1 mM BHT and 0.1 mM DTPA, and differential cell counts (macrophages, monocytes, eosinophils, lymphocytes, neutrophils, and erythrocytes) were performed on cytospun preparations of isolated cells according to established procedures in the art.
Electrospray ionization tandem mass spectrometry was used to simultaneously quantify individual molecular species of HETEs, HPETEs, the prostaglandin PGF2α, F2-isoprostanoids, hydroxy- and hydroperoxy-octadecadienoic acids (H(P)ODEs), and their precursors, arachidonic acid (AA) and linoleic acid (LA). Additionally, the molar ratios of o-tyrosine (oY/F). were measured.

[1] = 72 Hour Thioglycollate/4 Hour Zymosan, 500 mg/kg oral gavage, P-VALUE 0.772 NP
[2] = 72 Hour Thioglycollate/4 Hour Zymosan, 500 mg/kg oral gavage, P-VALUE 0.862 NP
[3] = 72 Hour Thioglycollate/4 Hour Zymosan
[4] = 72 Hour Thioglycollate, 500 mg/kg oral gavage, P-VALUE 0.117
[5] = 72 Hour Thioglycollate, 500 mg/kg oral gavage, P-VALUE 0.275
[6] = 72 Hour Thioglycollate, 500 mg/kg oral gavage, P-VALUE 0.325 NP
[7] = 72 Hour Thioglycollate, 500 mg/kg oral gavage, P-VALUE 0.349
[8] = 72 Hour Thioglycollate, 500 mg/kg oral gavage, P-VALUE 0.393
[9] = 72 Hour Thioglycollate, 500 mg/kg oral gavage, P-VALUE 0.512
[10] = 72 Hour Thioglycollate, 500 mg/kg oral gavage, P-VALUE 0.524 NP
[11] = 72 Hour Thioglycollate, 500 mg/kg oral gavage, P-VALUE 0.542
[12] = 72 Hour Thioglycollate, 500 mg/kg oral gavage, P-VALUE 0.603 NP
[13] = 72 Hour Thioglycollate, 500 mg/kg oral gavage, P-VALUE 0.726
[14] = 72 Hour Thioglycollate, 500 mg/kg oral gavage, P-VALUE 0.741
[15] = 72 Hour Thioglycollate, 500 mg/kg oral gavage, P-VALUE 0.793
[16] = 72 Hour Thioglycollate, 500 mg/kg oral gavage, P-VALUE 0.862 NP
[17] = 72 Hour Thioglycollate, 500 mg/kg oral gavage, P-VALUE 0.968
[18] = 16 hours Tg/4 hour Z, 500 mg/kg oral gavage
[19] = 16 hours Tg, 500 mg/kg oral gavage
[20] = 72 hours Tg/4 hour Z, 500 mg/kg oral gavage
[21] = Baseline, 500 mg/kg oral gavage, P-VALUE 0.081 NP
[22] = Baseline, 500 mg/kg oral gavage, P-VALUE 0.158 NP
[23] = Baseline, 500 mg/kg oral gavage, P-VALUE 0.271
[24] = Baseline, 500 mg/kg oral gavage, P-VALUE 0.290
[25] = Baseline, 500 mg/kg oral gavage, P-VALUE 0.298 NP
[26] = Baseline, 500 mg/kg oral gavage, P-VALUE 0.302
[27] = Baseline, 500 mg/kg oral gavage, P-VALUE 0.391
[28] = Baseline, 500 mg/kg oral gavage, P-VALUE 0.418
[29] = Baseline, 500 mg/kg oral gavage, P-VALUE 0.471 NP
[30] = Baseline, 500 mg/kg oral gavage, P-VALUE 0.810 NP
[31] = Baseline, 500 mg/kg oral gavage, P-VALUE 0.843
[32] = Baseline, 500 mg/kg oral gavage, P-VALUE 0.920
[33] = Baseline, 500 mg/kg oral gavage, P-VALUE 1.000 NP

CC1=C(/C=C/C(C)=C/C=C/C(C)=C/C=C/C=C(C)/C=C/C=C(C)/C=C/C2=C(C)C(=O)C(OC(=O)CCC(=O)O)CC2(C)C)C(C)(C)CC(OC(=O)CCC(=O)O)C1=O (stereo not shown) [Cardax, disodium disuccinate astaxanthin]
9-HODE MEAN [1]: 4.747 pmol | 9-HODE MEDIAN [1]: 3.683 pmol | 11-HETE MEAN [2]: 0.837 pmol | 11-HETE MEDIAN [2]: 0.703 pmol | 5-oxo-ETE (pmol), MEAN [3]: 0.148 pmol | 5-oxo-ETE (ratio), MEAN [3]: 0.063 ratio | 8-iso-F2a (pmol), MEAN [3]: 0.057 pmol | 8-iso-F2a/AA (ratio), MEAN [3]: 0.017 ratio | 5-oxo-ETE (pmol), MEDIAN [3]: 0.116 pmol | 5-oxo-ETE (ratio), MEDIAN [3]: 0.048 ratio | 8-iso-F2a (pmol), MEDIAN [3]: 0.037 pmol | 8-iso-F2a/AA (ratio), MEDIAN [3]: 0.011 ratio | 9-HETE MEAN [4]: 0.274 pmol | 9-HETE MEDIAN [4]: 0.299 pmol | 9-HODE/LA (ratio) MEAN [5]: 0.180 | 9-HODE/LA (ratio) MEDIAN [5]: 0.109 | 5-HETE MEAN [6]: 0.129 pmol | 5-HETE MEDIAN [6]: 0.082 pmol | 9-HODE MEAN [7]: 1.831 pmol | 9-HODE MEDIAN [7]: 1.585 pmol | 13-HODE MEAN [8]: 5.552 pmol | 13-HODE MEDIAN [8]: 5.520 pmol | 11-HETE/AA (ratio) MEAN [9]: 0.151 | 11-HETE/AA (ratio) MEDIAN [9]: 0.132 | Arachidonic Acid MEAN [10]: 836.27 pmol | Arachidonic Acid MEDIAN [10]: 758.43 pmol | PGF2a/AA (ratio) MEAN [11]: 0.030 | PGF2a/AA (ratio) MEDIAN [11]: 0.033 | Linoleic Acid MEAN [12]: 14242 pmol | Linoleic Acid MEDIAN [12]: 10076 pmol | Prostaglandin F2α (PGF2α) MEAN [13]: 0.021 pmol | Prostaglandin F2α (PGF2α) MEDIAN [13]: 0.018 pmol | 11-HETE MEAN [14]: 0.112 pmol | 11-HETE MEDIAN [14]: 0.100 pmol | 5-HETE/AA (ratio) MEAN [15]: 0.170 | 5-HETE/AA (ratio) MEDIAN [15]: 0.082 | 9-HETE/AA (ratio) MEAN [16]: 0.348 | 9-HETE/AA (ratio) MEDIAN [16]: 0.241 | 13-HODE/AA (ratio) MEAN [17]: 0.504 | 13-HODE/AA (ratio) MEDIAN [17]: 0.363 | 5-oxo-ETE (pmol), MEAN (72 Hour Thioglycollate): 0.026 pmol | 5-oxo-ETE (ratio), MEAN (72 Hour Thioglycollate): 0.021 ratio | 8-iso-F2a (pmol), MEAN (72 Hour Thioglycollate): 0.010 pmol | 8-iso-F2a/AA (ratio), MEAN (72 Hour Thioglycollate): 0.016 ratio | 5-oxo-ETE (pmol), MEDIAN (72 Hour Thioglycollate): 0.000 pmol | 5-oxo-ETE (ratio), MEDIAN (72 Hour Thioglycollate): 0.000 ratio | 8-iso-F2a (pmol), MEDIAN (72 Hour Thioglycollate): 0.000 pmol | 8-iso-F2a/AA (ratio), MEDIAN (72 Hour Thioglycollate): 0.000 ratio | 5-oxo-EET (pmol) compared to NS (72 Tg/4 hour Z, 500 mg/kg oral gavage): significant decrease | 8-iso-F2α (pmol) compared to NS [18]: significant decrease | 8-iso-F2α/AA ratio compared to NS [18]: significant decrease | AA (pmol) compared to NS [19]: significantly higher | LA (pmol) compared to NS [19]: significantly higher | 5-HETE/AA ratio compared to NS [20]: significant decrease | 5-oxo-EET (ratio) compared to NS [20]: significant decrease | 9-HETE/AA ratio compared to NS [20]: significant decrease | 9-HODE/LA (ratio) compared to NS [20]: significant decrease | 11-HETE/AA ratio compared to NS [20]: significant decrease | AA (pmol) compared to NS [20]: significantly higher | LA (pmol) compared to NS [20]: significantly higher | PGF2α/AA ratio compared to NS [20]: significant decrease | PGF2a/AA (ratio) MEAN [21]: 0.033 | PGF2a/AA (ratio) MEDIAN [21]: 0.000 | Prostaglandin F2α (PGF2α) MEAN [22]: 0.036 pmol | Prostaglandin F2α (PGF2α) MEDIAN [22]: 0.000 pmol | 13-HODE MEAN [23]: 26.618 pmol | 13-HODE MEDIAN [23]: 23.554 pmol | 11-HETE/AA (ratio) MEAN [24]: 0.219 | 11-HETE/AA (ratio) MEDIAN [24]: 0.218 | 9-HODE/LA (ratio) MEAN [25]: 0.212 | 9-HODE/LA (ratio) MEDIAN [25]: 0.168 | 5-HETE/AA (ratio) MEAN [26]: 0.129 | 5-HETE/AA (ratio) MEDIAN [26]: 0.145 | 13-HODE/AA (ratio) MEAN [27]: 2.976 | 13-HODE/AA (ratio) MEDIAN [27]: 2.848 | 9-HETE/AA (ratio) MEAN [28]: 0.879 | 9-HETE/AA (ratio) MEDIAN [28]: 0.887 | 5-HETE MEAN [29]: 0.096 pmol | 5-HETE MEDIAN [29]: 0.047 pmol | 11-HETE MEAN [29]: 0.121 pmol | 11-HETE MEDIAN [29]: 0.073 pmol | 9-HETE MEAN [30]: 0.510 pmol | 9-HETE MEDIAN [30]: 0.272 pmol | Linoleic Acid MEAN [31]: 8239.5 pmol | Linoleic Acid MEDIAN [31]: 5875.6 pmol | 9-HODE MEAN [32]: 1.791 pmol | 9-HODE MEDIAN [32]: 1.579 pmol | Arachidonic Acid MEAN [33]: 587.46 pmol | Arachidonic Acid MEDIAN [33]: 323.65 pmol | 5-oxo-ETE (pmol), MEAN (Baseline): 0.020 pmol | 5-oxo-ETE (ratio), MEAN (Baseline): 0.033 ratio | 8-iso-F2a (pmol), MEAN (Baseline): 0.156 pmol | 8-iso-F2a/AA (ratio), MEAN (Baseline): 0.307 ratio | 5-oxo-ETE (pmol), MEDIAN (Baseline): 0.000 pmol | 5-oxo-ETE (ratio), MEDIAN (Baseline): 0.000 ratio | 8-iso-F2a (pmol), MEDIAN (Baseline): 0.175 pmol | 8-iso-F2a/AA (ratio), MEDIAN (Baseline): 0.266 ratio
